Measurements as given in the supplement of paper PMC10307832.

Assays:
Test in all cases: relative viability (nuclei count vs DMSO), 5 days (fraction); higher = more cells survive
Bortezomib + Phenformin = compound: CC(C)C[C@H](NC(=O)[C@H](Cc1ccccc1)NC(=O)c1cnccn1)B(O)O [Bortezomib] + N=C(N)NC(=N)NCCc1ccccc1 [Phenformin] (partner 250 µM)
Method in brief: (§1)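 Values are medians from duplicate plates. Each reflects relative viability, defined as the nuclei count of treated wells over that of vehicle wells. Lung cancer cell lines in 1536-well plates were pin-tool dosed one day after seeding with one drug alone or with a fixed anchor-drug dose plus five library-drug doses (not always all listed) in √10 steps, then fixed, stained and imaged at 4× after 5 days.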

[1] = compound: CC1=CC(=NN1)NC2=CC(=NC(=N2)/C=C/C3=CC=CC=C3)N4CCN(CC4)C + N=C(N)NC(=N)NCCc1ccccc1 [Phenformin] (partner 250 µM)
Method in brief: as §1

[2] = compound: CC1=CC(=NN1)NC2=CC(=NC(=N2)/C=C/C3=CC=CC=C3)N4CCN(CC4)C + Nc1nc2[nH]cc(CCc3ccc(C(=O)N[C@@H](CCC(=O)O)C(=O)O)cc3)c2c(=O)[nH]1 [Pemetrexed] (partner 0.2 µM)
Method in brief: as §1

Obatoclax + OSI-027 = compound: COC1=CC(c2cc3ccccc3[nH]2)=N/C1=C\c1[nH]c(C)cc1C [Obatoclax] + COc1cccc2cc(-c3nc([C@H]4CC[C@H](C(=O)O)CC4)n4ncnc(N)c34)[nH]c12 [OSI-027] (partner 0.5 µM)
Method in brief: as §1

Cell Line: NCI-H650
- relative viability (Bortezomib + Phenformin; first compound 0.000632 µM): 0.431
- relative viability (Bortezomib + Phenformin; first compound 0.002 µM): 0.461
- relative viability (Bortezomib + Phenformin; first compound 0.006325 µM): 0.38
- relative viability (Bortezomib + Phenformin; first compound 0.02 µM): 0.203
- relative viability ([1]; first compound 0.253 µM): 0.521
- relative viability ([1]; first compound 0.8 µM): 0.483
- relative viability ([1]; first compound 2.53 µM): 0.371
- relative viability ([1]; first compound 8 µM): 0.181
- relative viability ([2]; first compound 0.08 µM): 1.01
- relative viability ([2]; first compound 0.253 µM): 1.08
- relative viability ([2]; first compound 0.8 µM): 1.01
- relative viability ([2]; first compound 2.53 µM): 0.727
- relative viability ([2]; first compound 8 µM): 0.307
- relative viability (Obatoclax + OSI-027; first compound 0.01 µM): 0.568
- relative viability (Obatoclax + OSI-027; first compound 0.03162 µM): 0.449
- relative viability (Obatoclax + OSI-027; first compound 0.3162 µM): 0.419
- relative viability (Obatoclax + OSI-027; first compound 1 µM): 0.274
